Assay results from US6627732B1, “Glutathione derivatives and their dosage forms” (Teijin Limited, priority 1998, dated 2003).
Where a name gives a salt, the structure may show the parent alone. Starred links: 1 amine or outer side, 2 acyl side, 3 side chain; linkers in the order of their positions; H or OH if unused. Non-standard residues stand in square brackets, D forms with d. Residues, ends and D or L forms follow the SMILES beside them. *: point of attachment. γGlu = O=C(O)[C@H](CCC(=O)[*:2])N[*:1]; dPhg = N[C@@H](C(=O)O)c1ccccc1; Bn = c1ccc(C*)cc1

Experiments:
[1] = test system: HL-60 cells; experiment: HL-60 cell differentiation induction, NBT reducing activity, DMSO as solvent (Example 21); assay type: cell-based, human
Description: In a manner similar to that in Example 20, the in vitro activity of the glutathione derivatives of Examples 4, 5, and 8, and Comparative Example 3 were compared.
(1) The differences from Example 20 were: First, since the glutathione derivatives of Examples and Comparative Examples used dimethyl sulfoxide (DMSO) as the solvent because of the solubility of the compounds, the system contained 0.1-0.3 (v/v)% DMSO instead of ethanol. […] This caused slight differences in the sensitivity in the test results of the glutathione derivative of Example 4. Furthermore, in Example 21, the differentiation induction on HL-60 cells into granulocytic cells in the coexistence of 9-cis-RA was only evaluated.

[2] = test system: rabbit liver esterase; experiment: Decomposition of glutathione derivatives by rabbit liver esterase (physiological stability); assay type: in vitro ADME; conditions: BSA/D-PBS pH 7.4, 196-244 μg/ml
Method: (§1) (1) Bovine serum albumin (hereinafter referred to as BSA), Dulbecco's phosphate buffered saline (hereinafter referred to as D-PBS), swine liver esterase, and rabbit liver esterase were purchased from Sigma, 6-week old male SD rats were purchased from Nippon SLC, and 12-week old or older male Japanese white rabbits were purchased from Ichikawaya. On the day of the incubation experiment described below, blood was drawn from the animals in the presence of heparin, and plasma was separated therefrom for use. Human plasma was obtained from normal healthy males after obtaining their consent.
(§2) (2) The glutathione derivatives described in the Examples and Comparative Examples of the present invention were incubated for a fixed time in an enzyme solution having the following composition. Acetonitrile was added to the reaction mixture to inactivate the enzyme thereby to stop the reaction. The concentration of the glutathione derivatives in the deproteinized supernatant was measured by HPLC. For each time point of the esterase enzyme experiment, the mean values from two measurement or more were determined, and for the rats and rabbits the mean values of plasma samples from three individuals were determined. For some of the experiment data, changes with time of percentages relative to initial concentration of the glutathione derivative are shown in FIGS. 2 to 4.
(§3) Swine liver esterase and rabbit liver esterase experiment
(§4) 30 mg-BSA/ml-D-PBS (pH 7.4): 36 to 45 parts
(§5) Swine or rabbit liver esterase/D-PBS: 4-5 parts
(§6) 10 mg-glutathione derivative/ml-ethanol: one part (the final concentration in the reaction mixture is 196-244 μg/ml)

[3] = test system: swine liver esterase; experiment: Decomposition of glutathione derivatives by swine liver esterase (physiological stability); assay type: in vitro ADME; conditions: BSA/D-PBS pH 7.4, 196-244 μg/ml
Method: as §1, §2, §3, §4, §5, §6

[4] = Stability in rabbit plasma; conditions: rabbit, plasma
Method: as §1, §2
Rat, rabbit, and human plasma
Heparinized plasma: 30 to 40 parts
10 mg-glutathione derivative/ml-ethanol: one part (the final concentration in the reaction mixture is 250-323 μg/ml)

[5] = Pharmacokinetics after intravenous administration to rabbits, 2-compartment model (Example 25); assay type: in vivo, rabbit; conditions: iv auricular vein 2 ml/kg, fat emulsion (Comparative Ex. 1: HPCD/glucose solution)
Description: For the glutathione derivative of the present invention having a long-chain ester having 12 carbons or more and the glutathione derivatives of the conventional technology of Comparative Examples 1 and 2, kinetics in the blood were compared in rabbits that are a species having allow esterase activity in the blood.
(1) Male Japanese white rabbits, 12-week old or older, were purchased from Ichikawaya, and those rabbits that became 15-week old or older and whose body weight reached about 3 kg were used for the experiment. During the period up to the experiment, the animals were allowed free access to the animal feed and drinking water and were kept at a temperature of 24±2° C. and a humidity of 55±5%.
(2) The glutathione derivative having a long-chain ester of 12 carbons or more and the glutathione derivative of Comparative Example 2 were prepared at 20-200 mg/ml in a mixture of ethanol or ethanol:benzyl alcohol, which was mixed with the fat emulsion just prior to use, and was filtered with a 1.2 μm filter to obtain a liquid for intravenous administration. On the other hand, the glutathione derivative of Comparative Example 1 was dissolved in an aqueous solution of 6%-hydroxypropyl-β-cyclodextrin/5%-glucose at 15 mg/ml to obtain an administration liquid.
(3) The administration liquid of the glutathione derivative obtained in (2) at a dose of 2 ml/kg was rapidly infused into the left auricular vein of the rabbits under no anesthesia and under restraint at a rate of 1 ml/min. Each glutathione derivative was given to three or more rabbits. At 5, 10, 15, 30, 60, 120, and 240 minutes after the completion of the administration, 1 ml of the blood was drawn from the right auricular vein in the presence of heparin, which was immediately cooled on ice. Plasma was obtained by centrifuging the blood, 1-2 volume parts of acetonitrile was added to deproteinize the supernatant, which was filtered by a 0.5 μm filter. The supernatant of the filtrate was quantitated by HPLC.

[6] = test system: human leukemia cell HL-60; experiment: HL-60 cell differentiation induction, NBT reducing activity (Example 20); assay type: cell-based; conditions: 4 days
Method: Using the differentiation induction effect on the granulocytes or monocytes/macrophages obtained by culturing the human leukemia cell HL-60 in the presence of 9-cys-retinoic acid (9-cis-RA) or activated vitamin D3 (1α, 25(OH)2D3), and in the coexistence of the glutathione derivatives of Examples and the Comparative Examples of the present invention, the growth-promotion activity was tested.
(1) HL-60 cells used were purchased from the cell bank (Japanese Cancer Research Resource Bank, Cell No. JCRBOO85). In accordance with a standard method, the lyophilized cell stocks that were thawed before the start of the experiment and subcultured were used.
Subculturing was carried out by centrifuging (1500 rpm, 5 minutes) the cells in suspension culture and recovering and by diluting it in a fresh culture liquid at a concentration of about 1/100 (1 to 2×10^4 cells/ml). As the culture liquid, an RPMI 1640 medium containing 10% fetal bovine serum was used.
(2) The cells subcultured in (1) were recovered by centrifugation (1500 rpm, 5 minutes), and were dispersed in the culture liquid at 2×10^4 cells/ml, which were plated on a 24-well culture plate at 1 ml/well. To this system were added the glutathione derivatives of Example 4, Example 11, Comparative Example 1 and Comparative Example 2 and a differentiation induction substance (9-cis-RA or 1α, 25(OH)2D3). Thus, 1 μl per well each of an ethanol solution of the differentiation induction substances 9-cis-RA and 1α, 25(OH)2D3 were added at 5×10^−6 M and 2×10^−6 M, respectively. Then, 1 μl per well each of ethanol solutions of the glutathione derivatives at 1×10^−4 M to 1×10^−2 M was added. As the solvent treatment for the control, 1 μl of ethanol per well was added in stead of the glutathione derivative, and as the single treatment of glutathione derivatives, 1 μl of ethanol per well was added in stead of the differentiation induction substance. After culturing at 37° C. and 5% CO2 for 4 days, the cells were recovered by centrifugation (1500 rpm, 5 minutes).
(3) The measurement of a nitroblue tetrazolium (NBT) reducing activity which is often used for the evaluation of differentiation induction effects on monocytes/macrophages or granulocytic cells was carried out according to the following procedure. Thus, the cells recovered by centrifugation in (2) were suspended in a fresh culture medium, and then NBT was added thereto to […] and 12-O-tetradecanoyl phorbol-13-acetate to 100 nM. After incubating at 37° C. for 25 minutes, cytospin samples were prepared. After air drying, the cells were subjected to Kernechtrot stain, and 500 cells per sample were examined under alight microscope to determine the ratio of the NBT reduction activity-positive cells.
(4) The result of the experiment in which glutathione derivatives at 10^−7 to 10^−5 M were treated together with a differentiation induction substances is shown in Table 4. For a single treatment of each glutathione derivative up to 10^−5 M, no increases in the NBT reducing activity was observed. In a combined treatment of a glutathione derivative and a differentiation induction substance, an enhanced ratio of the NBT reduction activity-positive cells relative to the single treatment with a differentiation induction substance was observed depending on the concentration of the glutathione derivative. There were no major differences observed in the strength of effects between the glutathione derivatives of Examples 4 and 11 and Comparative Examples 1, and 2.

[7] = compound 3 × 10^−6 M in DMSO, Solvent control (EtOH - 0.1%)
[8] = compound 3 × 10^−6 M in DMSO, with 9-cis-RA (5 × 10^−9 M)
[9] = compound 3 × 10^−7 M in DMSO, Solvent control (EtOH - 0.1%)
[10] = compound 3 × 10^−7 M in DMSO, with 9-cis-RA (5 × 10^−9 M)
[11] = compound 3 × 10^−8 M in DMSO, Solvent control (EtOH - 0.1%)
[12] = compound 3 × 10^−8 M in DMSO, with 9-cis-RA (5 × 10^−9 M)
[13] = compound 10^−6 M in DMSO, Solvent control (EtOH - 0.1%)
[14] = compound 10^−6 M in DMSO, with 9-cis-RA (5 × 10^−9 M)
[15] = compound 10^−7 M in DMSO, Solvent control (EtOH - 0.1%)
[16] = compound 10^−7 M in DMSO, with 9-cis-RA (5 × 10^−9 M)
[17] = compound 10^−8 M in DMSO, Solvent control (EtOH - 0.1%)
[18] = compound 10^−8 M in DMSO, with 9-cis-RA (5 × 10^−9 M)

Decomposition rate constant by rabbit liver esterase [2] | Compound | Ratio of NBT reduction activity-positive cells [1, 7] [%] | Ratio of NBT reduction activity-positive cells [1, 8] [%] | Ratio of NBT reduction activity-positive cells [1, 9] [%] | Ratio of NBT reduction activity-positive cells [1, 10] [%] | Ratio of NBT reduction activity-positive cells [1, 11] [%] | Ratio of NBT reduction activity-positive cells [1, 12] [%] | Ratio of NBT reduction activity-positive cells [1, 13] [%] | Ratio of NBT reduction activity-positive cells [1, 14] [%] | Ratio of NBT reduction activity-positive cells [1, 15] [%] | Ratio of NBT reduction activity-positive cells [1, 16] [%] | Ratio of NBT reduction activity-positive cells [1, 17] [%] | Ratio of NBT reduction activity-positive cells [1, 18] [%] | other results
– | N[C@@H](CCC(=O)N[C@@H](CSCc1ccccc1)C(=O)N[C@@H](C(=O)O)c1ccccc1)C(=O)O [Comparative Example 3, Glu(Cys(Bzl)-D-Phg-OH)-OH Hydrochloride, reference compound] (γGlu-Cys(Bn)-[dPhg]-OH) | 0.6 | 17.1 | 0.6 | 3.8 | 0.5 | 2.8 | 0.3 | 6.1 | 0.3 | 3.5 | 0.7 | 3.1 | –
54.2 10^−4/unit/min | CCCCCCCCCCOC(=O)[C@H](NC(=O)[C@H](CSCc1ccccc1)NC(=O)CC[C@H](N)C(=O)OCC)c1ccccc1.Cl [Comparative Example 4, Glu(Cys(Bzl)-D-Phg-O(Decyl))-OEt Hydrochloride, reference compound] | – | – | – | – | – | – | – | – | – | – | – | – | Decomposition rate constant by swine liver esterase [3]: 88.5 10^−4/unit/min; Half life in rabbit plasma [4]: 3.02 h
0.523 10^−4/unit/min | CCCCCCCCCCCCCCCCCCCCCCOC(=O)[C@@H](N)CCC(=O)N[C@@H](CSCc1ccccc1)C(=O)N[C@@H](C(=O)OCC)c1ccccc1.Cl [Example 2, Glu(Cys(Bzl)-D-Phg-OEt)-O(Docosyl)hydrochloride] | – | – | – | – | – | – | – | – | – | – | – | – | Clearance per body weight [5]: 0.83 mL/min/kg; Distribution volume per body weight of the central compartment [5]: 0.07 L/kg
– | CCCCCCCCCCCCCCCCOC(=O)[C@H](CCC(=O)N[C@@H](CSCc1ccccc1)C(=O)N[C@@H](C(=O)OCC)c1ccccc1)NC(C)=O [Example 5, Ac-Glu(Cys(Bzl)-D-Phg-OEt)-O(Hexadecyl)] | 0.2 | 11.2 | 0.7 | 4.3 | 0.7 | 2.1 | 0.3 | 6.5 | 0.9 | 3.2 | 0.3 | 2.5 | –
– | CCCCCCCCCCCCCCCCOC(=O)[C@H](NC(=O)[C@H](CSCc1ccccc1)NC(=O)CC[C@H](N)C(=O)OCC)c1ccccc1.Cl [Example 8, Glu(Cys(Bzl)-D-Phg-O(Hexadecyl))-OEt Hydrochloride] | 0.7 | 16.9 | 0.9 | 4.7 | 0.4 | 3.2 | 0.8 | 8.8 | 0.8 | 4.2 | 0.5 | 2.9 | –
– | CCCCCCCCCCCCCCCCOC(=O)[C@H](NC(=O)[C@H](CSCc1ccccc1)NC(=O)CC[C@H](N)C(=O)O)c1ccccc1.Cl [Example 11, Glu(Cys(Bzl)-D-Phg-O(Hexadecyl))Hydrochloride] | – | – | – | – | – | – | – | – | – | – | – | – | Ratio of NBT reduction activity-positive cells ([6]; compound 10^−5 M, Solvent control (EtOH), no differentiation induction substance): 0.8%; Ratio of NBT reduction activity-positive cells ([6]; compound 10^−5 M, with 1α,25(OH)2D3 (2 × 10^−9 M)): 13.8%; Ratio of NBT reduction activity-positive cells ([6]; compound 10^−5 M, with 9-cis-RA (5 × 10^−9 M)): 19.8%; Ratio of NBT reduction activity-positive cells ([6]; compound 10^−6 M, Solvent control (EtOH), no differentiation induction substance): 0.2%; Ratio of NBT reduction activity-positive cells ([6]; compound 10^−6 M, with 1α,25(OH)2D3 (2 × 10^−9 M)): 4.8%; Ratio of NBT reduction activity-positive cells ([6]; compound 10^−6 M, with 9-cis-RA (5 × 10^−9 M)): 11.2%; Ratio of NBT reduction activity-positive cells ([6]; compound 10^−7 M, Solvent control (EtOH), no differentiation induction substance): 0.6%; Ratio of NBT reduction activity-positive cells ([6]; compound 10^−7 M, with 1α,25(OH)2D3 (2 × 10^−9 M)): 5.1%; Ratio of NBT reduction activity-positive cells ([6]; compound 10^−7 M, with 9-cis-RA (5 × 10^−9 M)): 8.8%
